# Measurements as given in US9382245B2, “Compounds and methods for treating HIV infections” (priority 2013, dated 2016).
# Assays:
# in vitro = details: human
# human MT-2 T-cells = details: human
SMILES,CC50 (in vitro),CC50 (human MT-2 T-cells)
"O=c1ccn(CCOc2ccccc2Oc2cccc3[nH]ccc23)c(=O)[nH]1 [8a, 1-(2-(2-((1H-indol-4-yl)oxy)phenoxy)ethyl)pyrimidine-2,4(1H,3H)-dione]",53 µM,–
"O=c1ccn(CCOc2cc(Cl)ccc2Oc2cccc3[nH]ccc23)c(=O)[nH]1 [8b, 1-(2-(2-((1H-indol-4-yl)oxy)-5-chlorophenoxy)ethyl)pyrimidine-2,4(1H,3H)-dione]",18 µM,–
"Cc1cc2c(Oc3ccccc3OCCn3ccc(=O)[nH]c3=O)cccc2[nH]1 [8c, 1-(2-(2-((2-methyl-1H-indol-4-yl)oxy)phenoxy)ethyl)pyrimidine-2,4(1H,3H)-dione]",15 µM,–
"N#Cc1cc2c(Oc3ccccc3OCCn3ccc(=O)[nH]c3=O)cccc2[nH]1 [8d, 4-(2-(2-(2,4-dioxo-3,4-dihydropyrimidin-1(2H)-yl)ethoxy)phenoxy)-1H-indole-2-carbonitrile]",72 µM,–
"Cc1cc(Oc2ccccc2OCCn2ccc(=O)[nH]c2=O)c2cc(C#N)[nH]c2c1 [8e, 4-(2-(2-(2,4-dioxo-3,4-dihydropyrimidin-1(2H)-yl)ethoxy)phenoxy)-6-methyl-1H-indole-2-carbonitrile]",1.2 µM,–
"N#Cc1cc2c(Oc3ccccc3OCCn3ccc(=O)[nH]c3=O)cc(Cl)cc2[nH]1 [8f, 6-chloro-4-(2-(2-(2,4-dioxo-3,4-dihydropyrimidin-1(2H)-yl)ethoxy)phenoxy)-1H-indole-2-carbonitrile]",81 µM,–
"Cc1cc2c(Oc3ccccc3OCCn3ccc(=O)[nH]c3=O)cccn2c1 [10a, 1-(2-(2-((2-methylindolizin-8-yl)oxy)phenoxy)ethyl)pyrimidine-2,4(1H,3H)-dione]",9 µM,–
"Cc1cc(Oc2ccccc2OCCn2ccc(=O)[nH]c2=O)c2cc(C#N)cn2c1 [10c, 8-(2-(2-(2,4-dioxo-3,4-dihydropyrimidin-1(2H)-yl)ethoxy)phenoxy)-6-methylindolizine-2-carbonitrile]",3 µM,–
"N#Cc1cc2c(Oc3ccccc3OCCn3ccc(=O)[nH]c3=O)cc(F)cn2c1 [10d, 8-(2-(2-(2,4-dioxo-3,4-dihydropyrimidin-1(2H)-yl)ethoxy)phenoxy)-6-fluoroindolizine-2-carbonitrile]",–,40 µM
"N#Cc1cc2c(Oc3ccc(F)cc3OCCn3ccc(=O)[nH]c3=O)cc(Cl)cn2c1 [10i, 6-chloro-8-(2-(2-(2,4-dioxo-3,4-dihydropyrimidin-1(2H)-yl)ethoxy)-4-fluorophenoxy)indolizine-2-carbonitrile]",–,15 µM
"N#Cc1cc2c(Oc3cc(F)ccc3OCCn3ccc(=O)[nH]c3=O)cccn2c1 [10j, 8-(2-(2-(2,4-dioxo-3,4-dihydropyrimidin-1(2H)-yl)ethoxy)-5-fluorophenoxy)indolizine-2-carbonitrile]",35 µM,–
"N#Cc1cc2c(Oc3cc(F)c(F)cc3OCCn3ccc(=O)[nH]c3=O)cccn2c1 [10k, 8-(2-(2-(2,4-dioxo-3,4-dihydropyrimidin-1(2H)-yl)ethoxy)-4,5-difluorophenoxy)indolizine-2-carbonitrile]",19 µM,–
"N#Cc1cc2c(Oc3cc(F)c(F)cc3OCCn3ccc(=O)[nH]c3=O)cc(F)cn2c1 [10l, 8-(2-(2-(2,4-dioxo-3,4-dihydropyrimidin-1(2H)-yl)ethoxy)-4,5-difluorophenoxy)-6-fluoroindolizine-2-carbonitrile]",54 µM,–
"N#Cc1cc2c(Oc3ccc(Cl)cc3OCCn3ccc(=O)[nH]c3=O)cccn2c1 [10m, 8-(4-chloro-2-(2-(2,4-dioxo-3,4-dihydropyrimidin-1(2H)-yl)ethoxy)phenoxy)indolizine-2-carbonitrile]",55 µM,–
"N#Cc1cc2c(Oc3ccc(Cl)cc3OCCn3ccc(=O)[nH]c3=O)cc(Cl)cn2c1 [10n, 6-chloro-8-(4-chloro-2-(2-(2,4-dioxo-3,4-dihydropyrimidin-1(2H)-yl)ethoxy)phenoxy)indolizine-2-carbonitrile]",20 µM,–
"Cc1cc(Oc2ccccc2OCCn2ccc(=O)[nH]c2=O)c2cc(C#N)oc2c1 [12b, 4-(2-(2-(2,4-dioxo-3,4-dihydropyrimidin-1(2H)-yl)ethoxy)phenoxy)-6-methylbenzofuran-2-carbonitrile]",> 100 µM,–
"Cc1cc(Oc2ccc(F)cc2OCCn2ccc(=O)[nH]c2=O)c2cc(C#N)oc2c1 [12e, 4-(2-(2-(2,4-dioxo-3,4-dihydropyrimidin-1(2H)-yl)ethoxy)-4-fluorophenoxy)-6-methylbenzofuran-2-carbonitrile]",> 100 µM,–
"O=c1ccn(CCOc2cc(Cl)ccc2Oc2cccc3occc23)c(=O)[nH]1 [12f, 1-(2-(2-(benzofuran-4-yloxy)-5-chlorophenoxy)ethyl)pyrimidine-2,4(1H,3H)-dione]",19 µM,–
"Cc1cc2c(Oc3ccc(Cl)cc3OCCn3ccc(=O)[nH]c3=O)cccc2o1 [12g, 1-(2-(5-chloro-2-((2-methylbenzofuran-4-yl)oxy)phenoxy)ethyl)pyrimidine-2,4(1H,3H)-dione]",8 µM,–
"N#Cc1cc2c(Oc3ccc(Cl)cc3OCCn3ccc(=O)[nH]c3=O)cccc2o1 [12h, 4-(4-chloro-2-(2-(2,4-dioxo-3,4-dihydropyrimidin-1(2H)-yl)ethoxy)phenoxy)benzofuran-2-carbonitrile]",7 µM,–
"O=c1ccn(CCOc2cc(Cl)ccc2Oc2cccc3ccoc23)c(=O)[nH]1 [13a, 1-(2-(2-(benzofuran-7-yloxy)-5-chlorophenoxy)ethyl)pyrimidine-2,4(1H,3H)-dione]",50 µM,–
"Cc1ccc2c(Oc3ccccc3OCCn3ccc(=O)[nH]c3=O)cccc2c1 [14b, 1-(2-(2-((6-methylnaphthalen-1-yl)oxy)phenoxy)ethyl)pyrimidine-2,4(1H,3H)-dione]",–,40 µM
"O=c1ccn(CCOc2ccccc2Oc2cccc3cc(Cl)ccc23)c(=O)[nH]1 [14c, 1-(2-(2-((6-chloronaphthalen-1-yl)oxy)phenoxy)ethyl)pyrimidine-2,4(1H,3H)-dione]",–,> 100 µM
"O=c1ccn(CCOc2ccccc2Oc2cc(Cl)cc3cc(Cl)ccc23)c(=O)[nH]1 [14d, 1-(2-(2-((3,6-dichloronaphthalen-1-yl)oxy)phenoxy)ethyl)pyrimidine-2,4(1H,3H)-dione]",–,45 µM
"N#Cc1ccc2c(Oc3ccccc3OCCn3ccc(=O)[nH]c3=O)cc(Cl)cc2c1 [14f, 7-chloro-5-(2-(2-(2,4-dioxo-3,4-dihydropyrimidin-1(2H)-yl)ethoxy)phenoxy)-2-naphthonitrile]",–,24 µM
"N#Cc1ccc2c(Oc3ccc(F)cc3OCCn3ccc(=O)[nH]c3=O)cc(Cl)cc2c1 [14g, 7-chloro-5-(2-(2-(2,4-dioxo-3,4-dihydropyrimidin-1(2H)-yl)ethoxy)-4-fluorophenoxy)-2-naphthonitrile]",–,16 µM
"N#Cc1ccc2c(Oc3ccc(Cl)cc3OCCn3ccc(=O)[nH]c3=O)cc(Cl)cc2c1 [14h, 7-chloro-5-(4-chloro-2-(2-(2,4-dioxo-3,4-dihydropyrimidin-1(2H)-yl)ethoxy)phenoxy)-2-naphthonitrile]",–,20 µM
"N#Cc1ccc2c(Oc3ccc(Cl)cc3OCCn3ccc(=O)[nH]c3=O)cccc2c1 [14j, 5-(4-chloro-2-(2-(2,4-dioxo-3,4-dihydropyrimidin-1(2H)-yl)ethoxy)phenoxy)-2-naphthonitrile]",–,> 100 µM
"N#Cc1ccc2c(Oc3ccc(Cl)cc3OCCn3ccc(=O)[nH]c3=O)cc(F)cc2c1 [14m, 5-(4-chloro-2-(2-(2,4-dioxo-3,4-dihydropyrimidin-1(2H)-yl)ethoxy)phenoxy)-7-fluoro-2-naphthonitrile]",–,18 µM
